Results as given in US8980881B2, “Crystalline forms of (R)-8-chloro-1-methyl-2,3,4,5-tetrahydro-1H-3-benzazepine hydrochloride” (priority 2004, dated 2015).
“Also recorded” adds a separate entry of the source. Where a name gives a salt, the structure may show the parent alone.

Tests used:
[1] = Dynamic vapor sorption (DVS) scan, with XRPD after the cycle; type: physicochemical; details: for crystalline form after DVS cycle: XRPD after the DVS cycle; for moisture adsorbed: between about 40 and about 80% RH, calculated from DVS; for DVS: adsorbs (moisture) / DVS: adsorption transition at / DVS: deliquescent above / DVS: hygroscopicity: dynamic vapor sorption
Description: FIG. 4 depicts a dynamic vapor sorption (DVS) scan for crystalline Form I of the invention (VTI dynamic vapor desorption analyzer).
FIG. 8 depicts a dynamic vapor sorption (DVS) scan for crystalline Form II of the invention (VTI dynamic vapor desorption analyzer).
FIG. 12 depicts a dynamic vapor sorption (DVS) scan for crystalline Form III of the invention.
The various crystalline forms of (R)-8-chloro-1-methyl-2,3,4,5-tetrahydro-1H-3-benzazepine hydrochloride can be identified by their unique solid state signatures with respect to, for example, differential scanning calorimetry (DSC), X-ray powder diffraction (XRPD), and other solid state methods. Further characterization with respect to water or solvent content of the crystalline forms can be gauged by any of various routine methods such as thermogravimetric analysis (TGA), dynamic vapor sorption (DVS), DSC and other techniques. For DSC, it is known that the temperatures observed will depend upon the rate of temperature change as well as sample preparation technique and the particular instrument employed. Thus, the values reported herein relating to DSC thermograms can vary by plus or minus about 4° C. For XRPD, the relative intensities of the peaks can vary, depending upon the sample preparation technique, the sample mounting procedure and the particular instrument employed. Moreover, instrument variation and other factors can often affect the 2-theta values. Therefore, the peak assignments of diffraction patterns can vary by plus or minus about 0.2°.
XRPD carried out on both Forms I and II after the DVS cycle confirmed this conversion.

[2] = Heat stability of crystalline form, XRPD analysis after heating; type: physicochemical
Protocol: A sample of Form I was heated to 160° C. in a TGA furnace for about 15 min when heated at a rate of about 10° C./min.
A sample of Form III was heated to 60° C. for at least 2 hours.
A sample of Form III was heated to 60° C. for one day.
A sample of Form III was heated to 80° C. for 30 minutes.
A sample of Form III was heated to 80° C. for 1 day.

Compound	crystalline form after DVS cycle ([1]; hydrochloride)	moisture adsorbed [1]	DVS: adsorbs (moisture) [1]	DVS: adsorption transition at ([1]; hydrochloride)	DVS: deliquescent above ([1]; hydrochloride)	DVS: hygroscopicity ([1]; hydrochloride)	conversion upon exposure to moisture [1]	crystal form after heating (XRPD) ([2]; heated to 60° C. for at least 2 hours)	crystal form after heating (XRPD) ([2]; heated to 60° C. for one day)	crystal form after heating (XRPD) ([2]; heated to 80° C. for 30 minutes)	crystal form after heating (XRPD) ([2]; heated to 80° C. for 1 day)	crystalline form after DVS cycle ([1]; hydrochloride Hemihydrate)	DVS: adsorption at 90% RH ([1]; at 90% RH)	water adsorbed ([1]; at 90% RH)	DVS: deliquescent above ([1]; hydrochloride Hemihydrate)	DVS: hygroscopicity ([1]; hydrochloride Hemihydrate)	crystal form after heating (XRPD) ([2]; heated to 160° C. in a TGA furnace for about 15 min, about 10° C./min)
C[C@H]1CNCCc2ccc(Cl)cc21 [Form II, (R)-8-chloro-1-methyl-2,3,4,5-tetrahydro-1H-3-benzazepine hydrochloride]	conversion to the hemihydrate (Form III); also recorded: crystalline form changes	about 3.8 wt %	adsorbs about 3.8 wt %;	about 40% RH;	deliquescent above 90% RH	hygroscopic; also recorded: hygroscopic;	readily convert to Form III	–	–	–	–	–	–	–	–	–	–
C[C@H]1CNCCc2ccc(Cl)cc21 [Form III, (R)-8-chloro-1-methyl-2,3,4,5-tetrahydro-1H-3-benzazepine hydrochloride Hemihydrate]	–	–	–	–	–	–	–	substantially no change in crystal form	partial conversion to Form I	partial conversion to Form I	partial conversion to Form I	no change in crystalline form	adsorption of less than 0.5%	less than 0.5 wt %	deliquescent above 95% RH;	substantially non-hygroscopic	–
C[C@H]1CNCCc2ccc(Cl)cc21 [Form I, (R)-8-chloro-1-methyl-2,3,4,5-tetrahydro-1H-3-benzazepine hydrochloride]	conversion to the hemihydrate (Form III); also recorded: crystalline form changes	about 3.8 wt %	adsorbs about 3.8 wt %;	about 60% RH;	deliquescent above 90% RH	hygroscopic; also recorded: hygroscopic;	readily convert to Form III	–	–	–	–	–	–	–	–	–	no change in crystal form
